Assay results published in PubChem BioAssay (NCI).
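Cells were grown in 96-well plates and exposed to each compound for 48 hours at five concentrations; endpoints were interpolated linearly between bracketing concentrations, or set to the highest concentration if not reached. Here, GI50 denotes the concentration required for 50% inhibition of growth. TGI: total growth inhibition.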

Each compound was assayed on RPMI-8226 leukemia (assay: inhibition of tumour cell growth, NCI panel, 48 h).

Row | SMILES | TGI [µM] | GI50 [µM]
1 | CCOC(=O)C1=C(C)N(NC(=O)Nc2ccccc2)C2(N)N(NC(=O)Nc3ccccc3)C(C)=C(C(=O)OCC)C12C(=O)OCC (stereo unspecified) | > 100 | 
2 | O=C(O)CSc1n[nH]c(-c2ccccc2O)n1 | > 100 | 
3 | Cc1nc(-c2nc(C)c(C(=O)NNC(=O)C[n+]3ccccc3)s2)sc1C(=O)NNC(=O)C[n+]1ccccc1 | > 100 | 
4 | CN(C)C=Nc1nc(=O)n(C2CCC(CO)O2)cc1F (stereo unspecified) | > 100 | 
5 | C=C1C[C@H](O)[C@H](Br)C(C)(C)[C@@]12CCC(C)=C(Cl)C2 | 1.25 | 0.229
6 | O=c1[nH]c(-c2ccccc2)nc2cc(Cl)ccc12 | > 100 | 
7 | Cc1ccc(S(=O)(=O)N2CCC2c2ccccc2)cc1 (stereo unspecified) | > 100 | 
8 | CCCOc1nc(N)c2cnn(C3CCCCO3)c2n1 (stereo unspecified) | > 100 | 
9 | C/C(CN1C(=O)c2ccccc2C1=O)=N\NS(=O)(=O)c1ccc(Cl)cc1 | > 100 | 
10 | COc1ccc(/C=C/COC(C)=O)cc1OC | > 100 | 
11 | CCOC(=O)n1cc(C2=C(c3ccc(OC)c(OC)c3)COC2=O)c2ccccc21 | 1.65 | 0.0327
12 | CC(=O)OC1(C)N=NC2(CCCCC2)O1 (stereo unspecified) | > 100 | 
13 | [O-][Cl+3]([O-])([O-])[O-].[O]=[Ru]=[O].c1ccc(-c2ccccn2)nc1.c1ccc(-c2ccccn2)nc1 | > 100 | 29.7
14 | CN(C)c1ccc(/C=N/NC(=S)Nc2ccccc2)cc1 | > 100 | 
15 | O=C1C(C(Nc2ccccc2)c2ccccc2)=C([O-])c2ccccc21.O=C1C(C(Nc2ccccc2)c2ccccc2)=C([O-])c2ccccc21.[Cu+2] (stereo unspecified) | > 100 | 24.8
16 | CN(C)CC1CCC/C1=N/OC(=O)c1ccccc1 (stereo unspecified) | > 100 | 
17 | CCOC(=O)C1Sc2ccccc2N=C1C (stereo unspecified) | > 100 | 
18 | O=C(NC1C=CCC2C(=O)N(c3ccccc3)C(=O)C12)OCc1ccccc1 (stereo unspecified) | > 100 | 
19 | CCC(C)SC1SCC2C(=O)N(C)C3(CC3C)C(=O)OCC(NC(=O)c3nc4ccccc4cc3O)C(=O)NC(C)C(=O)N(C)C1C(=O)N(C)C1(CC1C)C(=O)OCC(NC(=O)c1nc3ccccc3cc1O)C(=O)NC(C)C(=O)N2C (stereo unspecified) | 0.00233 | 
20 | Cc1[cH-]c(=O)n(-c2ccccc2)n1.[Au+].[Au].c1ccc([PH+](c2ccccc2)c2ccccc2)cc1.c1ccc([PH+](c2ccccc2)c2ccccc2)cc1 | > 100 | 99.4
21 | CC(=O)OCc1ccc2c(c1)C(O)NC(=O)O2 (stereo unspecified) | 73.6 | 
22 | CC1(C)CC(c2c[nH]c3ccccc23)=CC2=Nc3ccccc3C21O (stereo unspecified) | > 100 | 
23 | CN1C(=O)C(=O)N2c3ccc(Cl)cc3C3(c4ccccc4)N=CC12O3 (stereo unspecified) | 6.87 | 
24 | COc1ccc(CN2C(=O)C(Cl)=C(Nc3cccc(C(F)(F)F)c3)C2=O)cc1 | 23.2 | 2.38
25 | COc1ccc(C(c2cc(OC)c(OC)c(OC)c2)n2cncn2)cc1O (stereo unspecified) | > 100 | 0.452
26 | N#CCCC[Si]12OCCN(CCO1)CCO2 | > 100 | 
27 | O=C(/C=C/c1c(O)ccc2ccccc12)c1ccc([N+](=O)[O-])cc1 | > 100 | 

These compounds were tested on SF-268 CNS (assay: inhibition of tumour cell growth, NCI panel, 48 h).

Row | SMILES | TGI [µM] | GI50 [µM]
28 | C[C@@]1(O)CC[C@]2(C)C3CCCC3[C@H]12 (stereo partly specified) | > 100 | 
29 | COc1cc(-c2nc3sccn3c2-c2ccnc(NCCNS(=O)(=O)c3ccc(F)cc3)n2)ccc1F | > 100 | 2.78
30 | Cc1cc(Nc2ccc(C)c(Cl)c2)n2nc(C(F)(F)F)nc2n1 | > 100 | 28.3
31 | COc1ccc(Cn2c(Br)c3c(c2Br)-c2nc(N)sc2CC3)cc1 | 46.6 | 6.15
32 | CC(=O)[O-].CC(=O)[O-].O=C(N/N=C/c1cc(Cl)cc(Cl)c1O)c1ccncc1.[Cu+2] | > 100 | 
33 | C#Cc1cccc(Nc2nc3cc([N+](=O)[O-])ccc3nc2Nc2ccc(O)cc2)c1 | 3.45 | 1.56
34 | O=C(Nc1nc(=S)[nH][nH]1)C(=O)C(C(=O)c1ccc2ccccc2c1)C1OC(=O)c2ccccc21 (stereo unspecified) | > 100 | 
35 | CN(C)CC(O)c1ccc(/C=C/c2ccc(Cl)cc2)cc1 (stereo unspecified) | 2.88 | 1.49
36 | Cc1nnc2ccnn2c1C | > 100 | > 100
37 | CCOC(=O)C1=C(C)N(NC(=O)Nc2ccccc2)C2(N)N(NC(=O)Nc3ccccc3)C(C)=C(C(=O)OCC)C12C(=O)OCC (stereo unspecified) | > 100 | 
38 | O=C(O)CSc1n[nH]c(-c2ccccc2O)n1 | > 100 | 
